Test results reported in patent US20190225644A1, “MRNA CAP ANALOGS AND METHODS OF MRNA CAPPING” (ModernaTX, Inc., priority 2015, published 2019).
Where “and” joins values, the source holds several entries; their conditions need not be identical. Equal values may be shown once. Read-outs that look alike come from different tables or passages of the source.

Columns and labels:
HeLa Lysate [1] = assay: Cell free translation assay, mCitrine mRNA carrying the cap analogs; format: biochemical; conditions: 5-methoxy uridine modRNA
Protocol: (§1) The in vitro translation assay was conducted with the HeLa 1-step coupled IVT kit (ThermoFisher Scientific, Waltham, Mass.) according to the manufacturer's instructions to assess performance of new cap analogs as free compounds or as an integral part of capped mRNA. Cap analogs with affinity to eIF4E protein may reduce protein synthesis rate in cell-free translation. Further, RNAs containing such cap analogs (“Cap-modRNA”) show different potency of protein synthesis in cell-free translation.
The modified RNAs (“modRNAs”) of eGFP and mCitrine-degron, harboring chemical modifications on either the CAP structures, selected ribose units and/or the bases, were diluted in sterile nuclease-free water to a final amount of 500 ng in 5 uL. This volume was added to 20 uL of freshly prepared HeLa Lysate. The in vitro translation reaction was done in a standard 96-well round bottom plate (Corning, Corning, N.Y.), covered with an self-adhesive fluorescence-compatible seal (BioRad, Hercules, Calif.) at 30° C. inside the plate reader Cytation 3 (BioTek, Winooski, Vt.).
The fluorescent signal per reaction increased over time and is considered proportional to the occurring protein synthesis. Each cell-free translation reaction was monitored for 120-180 min with the following settings: eGFP protein—ex. 485 nm, em. […] 545, gain 70 or 80. The height of the reading head was set to 1 mm above the plate and a reading speed of one per sample every 17 seconds. The results of modRNAs with various caps are illustrated in FIGS. 3A-3B.
(§2) Cell free translation assays were also conducted using modRNAs comprises 5-methoxy uridine, which replaces each uridine in the RNA sequence, except otherwise specified. The results are shown in FIGS. 5A-5B and 6A-6B, and Tables 12 and 13. Table 12 discloses the measured mCitrine levels after 3 hours of a cell-free translation assay.

eIF4E [2] = target: T1, eIF4E (Homo sapiens, UniProt P06730); assay: Binding affinities to eIF4E using surface plasmon resonance (SPR)
Protocol: (§3) A sensor chip SA (GE Healthcare) is docked into a Biacore 3000 instrument.
(§4) Compound concentration series are injected over the immobilized protein serially in increasing concentration. Interaction models are fitted globally to the experimental traces, enabling determination of Kd or KD (binding affinity; unit: M) and possibly kon (on-rate, calculated from the association phase; unit: M^−1s^−1) and koff (off-rate, calculated from the dissociation phase; unit: s^−1).
(§5) A sensor chip (SAD5001 or SA) was docked into a Biacore 3000 instrument, washed with 50 mM NaOH, 1M NaCl. Protein eIF4E was diluted in running buffer (50 mM HEPES, 150 mM KCl, 10 mM MgCl2, 2 mM TCEP) to ˜1 μM. The diluted protein solution was injected for 300-600 seconds. Typical capture levels were 5000-6000 RU.
(§6) Test compounds were solubilized in ddH2O or DMSO to 10 mM. 100 μM stocks were prepared by 100-fold dilution in running buffer (50 mM HEPES, 150 mM KCl, 10 mM MgCl2). Assay was run with or without 1% DMSO.
(§7) Data were analyzed in GeneData. Curve fit was accepted or rejected by looking at the resulting sensorgrams and steady state fits.
(§8) Assay has been validated using running buffer with and without DMSO. […] Further, newly captured protein stabilizes slowly, leading to negative responses during the dissociation phase for compounds injected over newly captured protein.

HeLa Lysate [3] = assay: Cell free translation assay, hEPO mRNA carrying the cap analogs; format: biochemical; conditions: 5-methoxy uridine modRNA
Protocol: In FIG. 5A, “mod mRNA” refers to a modified mRNA comprising N1-methyl pseudouridine, which replaces each uridine in the RNA sequence. FIG. 5 B presents the results of a cell free translation assay using mRNAs carrying different cap analogs, normalized to capping and concentration of each capped mRNA (see also Table 13).
as §1, §2
Table 13 discloses the hEPO levels after 3 hours of a cell-free translation assay.

T7 RNA Polymerase = T7 RNA Polymerase (Escherichia phage T7, UniProt P00573); assay: Cotranscriptional capping of hEPO mRNA by in vitro transcription (capping fraction); format: biochemical; conditions: hEPO mRNA used in the in vivo assay
Protocol: The target mRNAs are prepared following IVT Reaction Protocol—Cotranscriptional capping described herein.
Ratio of A:U:C:G varies between 1:1:1:0.1 and 1:1:1:1, with the cap added in 10-fold excess to G. • 2. T7 RNA polymerase is added after other components except for water. • 3. Water is added for a total reaction volume of 100 uL. • 4. The mixture is mixed well and spun down in a benchtop centrifuge for 1 minute. • 5. The cocktail is incubated at 37 degrees for 4 hours. • 6. 2.5 uL of RNase free DNase I is added. • 7. The cocktail is incubated at 37° C. for 45 minutes.
As described in this Example, each of A, U, C, and G includes both unmodified and modified NTP. After the IVT reaction is complete, the mixture is cleaned using membrane purification (MegaClear or equivalent), and Oligo dT. Sample concentration is determined using a spectrophotometer, and degradation is quantitated using a bioanalyzer.

eIF4E [4] = target: T1, eIF4E; assay: biochemical
Protocol: as §3, §4, §5, §6, §7, §8

CD-1 mice = assay: In vivo expression assay, hEPO mRNA in MC3-based LNP; conditions: iv bolus 0.05 mg/kg, 6 h after injection, 008-7 Cap0-like, others Cap1-like
Protocol: mRNAs encoding hEPO were synthesized according to the method described in Example 2 above, co-transcriptionally incorporating cap analogs of the disclosure. […] A MC3-based lipid nanoparticle (LNP) formulation of the synthesized mRNA was produced, and was intravenously administered to CD-1 mice (n=3) at a bolus dose of 0.05 mg/kg. The level of hEPO was tested at 6 h, 24 h, or 48 h after injection.

eIF4E [5] = target: T1, eIF4E
Protocol: as §3, §4, §5, §6, §7, §8

[6] = tested on: human primary hepatocytes; assay: Cell-based expression in human primary hepatocytes of mRNAs carrying the cap analogs; conditions: mRNA carrying the cap, 5-methoxy uridine; 008-7 Cap0-like, all other caps Cap1-like
HeLa Lysate [7] = assay: Cap competition assay in kinetic cell free in vitro translation (free cap analogs); format: biochemical; conditions: free cap analog 0-100 uM against Cap1-tipped eGFP modRNA, fluorescence plateau
Protocol: as §1
For competition assays, the total volume of the cell-free translation reaction was increased to 27.8 uL by addition of either water or diluted free CAP analogs in water. The stock concentration of the free CAP analogs was 1 mM. With two-fold dilutions in water, the concentration was reduced sequentially. […] The CAP analogs used in this study were either commercial products serving as reference material (TriLink, San Diego, Calif.) or compounds disclosed herein. It is hypothesized that the small molecule cap analogs interfere with the assembly of the “closed loop” in a Kd-dependent fashion.
After the fluorescent signal in cell-free translation reaction reached a stable plateau, absolute values thereof were transferred to a statistical analysis program (GraphPad Software, La Jolla, Calif.) and curve fitting or IC50 calculations were derived with settings according to the instructions of the manufacturer.
The results from the cap competition assays are illustrated in FIGS. 1A-1C and 2A-2D. In this study, each of the modRNAs used comprises 1-methyl-pseudouridine, which replaces each uridine in the RNA sequence and 5-methyl cytidine, which replaces each cytidine in the RNA sequence. Further, Table 11 includes the IC50 values of certain compounds of the disclosure.

[8] = tested on: Hep3B HCC-derived malignant cells; assay: Expression of mCitrine mRNA carrying the cap in Hep3B cells (FIG. 9); format: cell-based; conditions: FIG. 9, reporter mCitrine
Text: FIG. 9 is a pair of graphs comparing the expression of mRNAs carrying different cap analogs in human primary hepatocytes to the expression in Hep3B cells (reporter: mCitrine).

[9] = tested on: CD1-derived primary hepatocytes; assay: Expression of mCitrine mRNA carrying the cap in primary hepatocytes (FIG. 9); format: cell-based; conditions: FIG. 9, reporter mCitrine
[10] = residence time as listed in Table 12
[11] = residence time as listed in Table 13

Chain of T7 RNA Polymerase (P00573 whole entry): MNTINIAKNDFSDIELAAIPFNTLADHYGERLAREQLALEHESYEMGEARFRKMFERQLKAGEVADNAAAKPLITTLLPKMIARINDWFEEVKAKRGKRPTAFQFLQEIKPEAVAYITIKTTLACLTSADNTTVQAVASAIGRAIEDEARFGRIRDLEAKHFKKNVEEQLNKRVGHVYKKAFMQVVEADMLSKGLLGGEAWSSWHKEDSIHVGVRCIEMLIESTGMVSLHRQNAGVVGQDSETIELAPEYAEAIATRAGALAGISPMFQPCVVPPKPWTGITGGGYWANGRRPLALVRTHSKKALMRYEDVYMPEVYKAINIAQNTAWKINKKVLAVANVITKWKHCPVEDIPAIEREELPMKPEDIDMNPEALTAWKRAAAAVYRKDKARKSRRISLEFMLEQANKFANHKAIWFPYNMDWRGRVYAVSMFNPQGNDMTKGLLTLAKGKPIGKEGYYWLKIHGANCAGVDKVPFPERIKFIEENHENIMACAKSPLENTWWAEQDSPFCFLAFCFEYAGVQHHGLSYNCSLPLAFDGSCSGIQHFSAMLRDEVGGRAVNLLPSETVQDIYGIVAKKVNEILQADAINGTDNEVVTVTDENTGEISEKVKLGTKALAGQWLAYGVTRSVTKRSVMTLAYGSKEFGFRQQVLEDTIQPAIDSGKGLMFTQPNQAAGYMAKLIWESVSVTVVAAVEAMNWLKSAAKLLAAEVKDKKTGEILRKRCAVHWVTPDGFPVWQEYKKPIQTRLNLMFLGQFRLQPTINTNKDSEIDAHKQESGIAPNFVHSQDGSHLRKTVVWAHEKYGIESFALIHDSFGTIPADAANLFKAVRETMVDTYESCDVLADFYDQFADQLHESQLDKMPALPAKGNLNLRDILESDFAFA
T1 sequence (P06730 32-217): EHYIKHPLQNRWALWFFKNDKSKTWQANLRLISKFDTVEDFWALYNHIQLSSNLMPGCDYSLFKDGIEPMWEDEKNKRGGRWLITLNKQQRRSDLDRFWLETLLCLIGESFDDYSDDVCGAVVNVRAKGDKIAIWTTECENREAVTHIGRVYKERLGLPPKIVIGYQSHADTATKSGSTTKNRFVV

SMILES | Ave norm (mCitrine levels after 3 hours of a cell-free translation assay) (HeLa Lysate [1]) | CFT (norm to conc. & capping & cap1), hEPO levels after 3 hours of a cell-free translation assay (HeLa Lysate [3]) | capping %/100 (T7 RNA Polymerase) | Kd (eIF4E [4]) | τ (eIF4E [2]; [11]) | koff (eIF4E [5]) | τ (eIF4E [2]; [10]) | other results
CO[C@@H]1[C@H](O)[C@@H](COP(=O)(O)OP(=O)([S-])OP(=O)(O)OC[C@H]2O[C@@H](n3cnc4c(=O)[nH]c(N)nc43)[C@H](O)[C@@H]2O)O[C@H]1n1c[n+](C)c2c(=O)[nH]c(N)nc21 (single isomer, unassigned) [Compound 005-30 (D1)] | 0.44 (D1); | 0.79 (D1) | 0.65 (D1) %/100 | 700 nM |  |  |  | τ (s) (eIF4E [2]; [10]): 15 (D1); s; τ (s) (eIF4E [2]; [11]): 14.9 (D1) s
CO[C@@H]1[C@H](O)[C@@H](COP(=O)(O)OP(=O)([S-])OP(=O)(O)OC[C@H]2O[C@@H](n3cnc4c(=O)[nH]c(N)nc43)[C@H](O)[C@@H]2O)O[C@H]1n1c[n+](C)c2c(=O)[nH]c(N)nc21 (single isomer, unassigned) [Compound 005-30 (D2)] | 0.84 (D2) | 1.66 (D2) | 0.71 (D2) %/100 | 1100 nM |  |  |  | τ (s) (eIF4E [2]; [10]): 10 (D2) s; τ (s) (eIF4E [2]; [11]): 10.4 (D2) s
CO[C@H]1[C@@H](O)[C@H](n2c[n+](C)c3c(=O)[nH]c(N)nc32)O[C@@H]1COP(=O)(O)OP(=O)(O)OP(=O)(O)OC[C@H]1O[C@@H](n2cnc3c(=O)[nH]c(N)nc32)[C@H](O)[C@@H]1O [ARCA, m7(3′-Om)GpppG, reference compound] |  | 1.93 | 0.86 %/100 |  | 0.6 s | 1.67 s⁻¹ |  | in vivo hEPO normalized to capping and Cap1 (CD-1 mice): 0.70; Kd (eIF4E [5]): 2000 to 3000 nM; h-primHeps norm to Capping and Cap1 [6]: 1.52
CO[C@@H]1[C@H](O)[C@@H](COP(=O)(O)OP(=O)(O)OP(=O)(O)OC[C@H]2O[C@@H]([n+]3cn(C)c4c(=O)[nH]c(N)nc43)[C@H](O)[C@@H]2O)O[C@H]1n1cnc2c(=O)[nH]c(N)nc21 [Cap1, m7GpppG(2′-Om), reference compound] | 0.30 | 1.00 | 1 %/100 |  | 1.3 s | 0.77 s⁻¹ | 1.3 s | in vivo hEPO normalized to capping and Cap1 (CD-1 mice): 1.00; Kd (eIF4E [5]): 3000 nM; h-primHeps norm to Capping and Cap1 [6]: 1.00
BP(=O)(OP(=O)([O-])OC[C@H]1O[C@@H](n2c[n+](C)c3c(=O)[nH]c(N)nc32)[C@H](O)[C@@H]1O)OP(=O)([O-])OC[C@H]1O[C@@H](n2c[n+](C)c3c(=O)[nH]c(N)nc32)[C@H](O)[C@@H]1O [Compound 005-4] | 0.24 |  |  | 700 to 1000 nM and 1000 nM |  |  |  | τ (eIF4E [2]): 4.17 s and 4.2 s; koff (eIF4E [2]; read-out: koff (s^−1)): 0.24 s⁻¹; IC50 (HeLa Lysate [7]): 5000 nM
C[n+]1cn([C@@H]2O[C@H](COP(=O)([O-])OP(=O)([O-])OP(=O)(O)OC[C@H]3O[C@@H](n4c[n+](C)c5c(=O)[nH]c(N)nc54)[C@H](O)[C@@H]3O)[C@@H](O)[C@H]2O)c2nc(N)[nH]c(=O)c21 [Compound 005-10] |  | 0.83 | 0.91 %/100 | 2700 nM and 3000 nM | 3.8 s | 0.26 s⁻¹ |  | IC50 (HeLa Lysate [7]): 14000 nM
COCCO[C@@H]1[C@H](O)[C@@H](COP(=O)(O)OP(=O)([O-])OP(=O)(O)OC[C@H]2O[C@@H](n3cnc4c(=O)[nH]c(N)nc43)[C@H](O)[C@@H]2O)O[C@H]1n1c[n+](CCOc2ccc(Cl)cc2)c2c(=O)[nH]c(N)nc21 [Compound 005-27] | 1.50 | 3.19 | 0.84 %/100 | 110 nM | 40 s | 0.025 s⁻¹ | 40 s | expression of mRNA carrying the cap in Hep3B cells [8]: high; expression of mRNA carrying the cap in primary hepatocytes [9]: low
COCCO[C@@H]1[C@H](O)[C@@H](COP(=O)(O)OP(=O)([S-])OP(=O)(O)OC[C@H]2O[C@@H](n3cnc4c(=O)[nH]c(N)nc43)[C@H](O)[C@@H]2O)O[C@H]1n1c[n+](CCOc2ccc(Cl)cc2)c2c(=O)[nH]c(N)nc21 (stereo partly drawn) [Compound 005-34] | 2.51 | 2.71 | 0.94 %/100 | 10 nM | 50 s | 0.02 s⁻¹ | 50 s | 
Nc1nc2c(ncn2[C@@H]2O[C@H](COP(=O)(O)OP(=O)([O-])OP(=O)(O)OC[C@H]3O[C@@H](n4c[n+](CCOc5ccc(Cl)cc5)c5c(=O)[nH]c(N)nc54)[C@@H](O)[C@@H]3O)[C@@H](O)[C@H]2O)c(=O)[nH]1 [Compound 005-35] |  | 1.02 | 1 %/100 |  | 9.1 s |  |  | 
COc1ccc(CN2CC(COP(=O)([O-])OP(=O)(O)OP(=O)(O)OCC3OC(n4cnc5c(=O)[nH]c(N)nc54)C(O)C3O)OC(n3c[n+](C)c4c(=O)[nH]c(N)nc43)C2)cc1 (stereo not drawn) [Compound 006-26] | 0.50 |  |  |  |  |  | 3.3 s | 
CN(C)CCN1CC(COP(=O)(O)OP(=O)([O-])OP(=O)(O)OC[C@H]2O[C@@H](n3cnc4c(=O)[nH]c(N)nc43)[C@H](O)[C@@H]2O)OC(n2c[n+](C)c3c(=O)[nH]c(N)nc32)C1 (stereo partly drawn) [Compound 006-44] | 0.31 |  |  |  |  |  | 0.8 s | 
CN1CC(COP(=O)(O)OP(=O)([O-])OP(=O)(O)OC[C@H]2O[C@@H](n3cnc4c(=O)[nH]c(N)nc43)[C@H](O)[C@@H]2O)OC(n2c[n+](CCOc3ccc(Cl)cc3)c3c(=O)[nH]c(N)nc32)C1 (stereo partly drawn) [Compound 006-45] | 0.74 | 0.48 | 0.95 %/100 |  | 11.6 s |  | 11.6 s | 
C[n+]1cn(C2CN(Cc3ccccc3)CC(COP(=O)(O)OP(=O)([S-])OP(=O)(O)OC[C@H]3O[C@@H](n4cnc5c(=O)[nH]c(N)nc54)[C@H](O)[C@@H]3O)O2)c2nc(N)[nH]c(=O)c21 (stereo partly drawn) [Compound 006-46] | 0.77 |  |  |  |  |  | 3.4 s | 
